Assay results reported in ChEMBL document CHEMBL1201862, “PubChem BioAssay data set” (2004).
Activity calls are given as the source filed them.

Columns and labels:
[1] = target: T1, Heat shock factor protein 1 (Mus musculus, UniProt P38532); test: enhancement of HSF1-driven luciferase signal – cell-based, NIH3T3, luminescence, dose retest, confirmation (AID 435004); assay type: functional;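 note: stress induced by proteasome inhibitor MG132 added 30 min after compound; luciferase reporter driven by HSF1 response element in NIH3T3 cells; actives raise luminescence as potentiators of the MG132 stress response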
T1 sequence (P38532 whole entry): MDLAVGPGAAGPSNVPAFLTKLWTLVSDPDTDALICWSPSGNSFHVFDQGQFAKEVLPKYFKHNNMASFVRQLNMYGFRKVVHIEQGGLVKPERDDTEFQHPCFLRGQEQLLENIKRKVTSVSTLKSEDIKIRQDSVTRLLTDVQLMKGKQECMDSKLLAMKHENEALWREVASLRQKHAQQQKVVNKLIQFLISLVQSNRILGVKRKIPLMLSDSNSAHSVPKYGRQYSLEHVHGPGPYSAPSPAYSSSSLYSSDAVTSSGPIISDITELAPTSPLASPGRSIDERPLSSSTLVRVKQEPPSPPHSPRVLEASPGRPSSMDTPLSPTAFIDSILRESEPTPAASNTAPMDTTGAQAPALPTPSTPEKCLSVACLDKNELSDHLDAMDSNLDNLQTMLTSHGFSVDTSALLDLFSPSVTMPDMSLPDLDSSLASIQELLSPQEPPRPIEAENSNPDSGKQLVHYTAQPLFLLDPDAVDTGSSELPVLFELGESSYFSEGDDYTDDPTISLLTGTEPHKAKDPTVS

[2] = target: Photoreceptor-specific nuclear receptor (Homo sapiens, UniProt Q9Y5X4); assay type: functional, cell-based;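 note: CHO-S cells with Gal4-NCOR and VP16-NR2E3 two-hybrid luciferase reporter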
[3] = target: T2, Methionyl-tRNA synthetase, putative (Trypanosoma brucei brucei, UniProt Q38C91); assay type: functional, Trypanosoma brucei brucei strain 927/4 GUTat10.1
T2 sequence (Q38C91 whole entry): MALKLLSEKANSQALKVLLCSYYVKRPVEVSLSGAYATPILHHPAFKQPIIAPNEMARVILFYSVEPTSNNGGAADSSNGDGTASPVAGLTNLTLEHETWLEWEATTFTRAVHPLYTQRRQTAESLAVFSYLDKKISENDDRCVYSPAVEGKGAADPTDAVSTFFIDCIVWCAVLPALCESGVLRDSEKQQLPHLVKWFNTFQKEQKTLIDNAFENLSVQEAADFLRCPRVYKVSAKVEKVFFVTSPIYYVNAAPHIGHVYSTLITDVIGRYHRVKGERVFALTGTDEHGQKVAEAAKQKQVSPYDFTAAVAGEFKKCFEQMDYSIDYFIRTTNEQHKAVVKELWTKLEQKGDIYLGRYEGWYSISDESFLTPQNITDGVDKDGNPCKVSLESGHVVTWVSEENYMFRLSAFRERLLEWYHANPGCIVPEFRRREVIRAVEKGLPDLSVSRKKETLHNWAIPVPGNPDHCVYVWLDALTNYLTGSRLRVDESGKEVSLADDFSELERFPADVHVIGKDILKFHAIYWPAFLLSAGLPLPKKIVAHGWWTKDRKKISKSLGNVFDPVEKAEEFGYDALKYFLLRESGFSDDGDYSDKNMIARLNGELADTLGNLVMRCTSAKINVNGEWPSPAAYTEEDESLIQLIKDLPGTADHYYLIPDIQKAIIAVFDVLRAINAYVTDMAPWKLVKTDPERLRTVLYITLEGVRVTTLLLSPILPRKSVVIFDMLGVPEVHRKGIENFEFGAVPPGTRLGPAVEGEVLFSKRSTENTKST

[4] = Counterscreen for inhibitors of Trypanosoma brucei methionyl tRNA synthetase (MetRS): Luminescence-based cell-based high throughput dose response assay to identify compounds that are cytotoxic to Jurkat human T lymphocyte cells.; assay type: functional
[5] = target: T2, Methionyl-tRNA synthetase, putative; assay type: functional, Trypanosoma brucei brucei strain 927/4 GUTat10.1; remark: listed apart in the source
[6] = alpha-synuclein stem-loop luciferase translation blockers – H4 neuroglioma cells, luminescence, confirmation (AID 1988); assay type: functional, cell-based
[7] = target: T3, Rac GTPase-activating protein 1 (Homo sapiens, UniProt Q9H0H5); test: blockers of MgcRacGAP-driven Rac1 GTP hydrolysis – biochemical, ADP Hunter fluorescence, primary and confirmatory, confirmation (AID 624330); assay type: functional
T3 sequence (Q9H0H5 whole entry): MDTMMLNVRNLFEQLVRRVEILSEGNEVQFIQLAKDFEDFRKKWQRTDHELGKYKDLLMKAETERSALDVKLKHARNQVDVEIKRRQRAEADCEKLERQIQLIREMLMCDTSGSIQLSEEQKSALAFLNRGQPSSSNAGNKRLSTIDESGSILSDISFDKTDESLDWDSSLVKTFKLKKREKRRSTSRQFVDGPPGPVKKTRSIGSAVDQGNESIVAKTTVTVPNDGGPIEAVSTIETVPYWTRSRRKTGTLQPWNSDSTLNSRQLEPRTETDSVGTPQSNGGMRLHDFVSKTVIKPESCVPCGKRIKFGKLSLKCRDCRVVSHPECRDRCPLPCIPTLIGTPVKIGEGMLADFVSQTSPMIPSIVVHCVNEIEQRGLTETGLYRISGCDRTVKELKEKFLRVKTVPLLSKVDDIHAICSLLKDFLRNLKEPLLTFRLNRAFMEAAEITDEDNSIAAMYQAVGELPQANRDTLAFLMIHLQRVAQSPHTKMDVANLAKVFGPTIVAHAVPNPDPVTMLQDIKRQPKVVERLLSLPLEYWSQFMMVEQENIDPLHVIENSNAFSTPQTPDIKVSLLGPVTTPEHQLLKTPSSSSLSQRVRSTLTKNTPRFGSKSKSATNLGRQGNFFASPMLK

[8] = Luminescence Cell-Based Dose Response HTS to Identify Inhibitors of 5'UTR Stem-Loop Driven Prion Protein mRNA Translation in H4 Neuroglioblastoma Cells. [Related pubchem assays: 1827 (Project Summary), 1813 (Primary HTS)]; assay type: functional
[9] = viability loss in HeLa cells – cytotoxicity control for MgcRacGAP inhibitor project, dose response (AID 624300); assay type: functional
[10] = luciferase reporter signal suppression in cells – H4 neuroglioma cells, luminescence, dose response (AID 1990); assay type: functional, cell-based
[11] = blockers of HIV-1 envelope-mediated cell-cell fusion – cherry-pick, dose response (AID 652057); assay type: functional, cell-based
[12] = off-target signal loss in HeLa-CEM21 co-culture – HeLa F-luc CTL cells, cherry-picked, counter-screen for HIV-1 Env fusion inhibitor project, dose response (AID 652040); assay type: functional, cell-based;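 note: potency for signal decrease marking cytotoxic or nonspecific inhibition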
[13] = viability loss in CEM21 cells – cell-based, CellTiter-Glo luminescence, cherry-picked, cytotoxicity control for viral fusion inhibitor project, dose response (AID 652042); assay type: functional;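 note: potency for signal decrease meaning cytotoxicity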
[14] = HIV-1 AD8 envelope cell-cell fusion blockers – cherry-pick, dose response (AID 652062); assay type: functional, cell-based;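 note: luciferase signal from cell-cell fusion driven by HIV-1 clade B AD8 Env; potency is for inhibitors of fusion seen as a drop in luminescence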
[15] = blockers of HIV-1 ZM109 envelope-driven cell-cell fusion – HeLa effector, CEM target cells, luciferase, cherry-pick, dose response (AID 652058); assay type: functional, cell-based;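 note: luciferase signal from HIV-1 Env mediated cell-cell fusion of effector and target cells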
Streptokinase A = target: T4, Streptokinase A (Streptococcus pyogenes serotype M1, UniProt P10520); test: viability-normalized secreted streptokinase activity reduction – plasminogen activation absorbance, OD405, dose response (AID 1914); assay type: functional, Streptococcus pyogenes M1 GAS;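 note: secreted streptokinase activity via plasminogen activation per viability signal from cell pellet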
T4 sequence (P10520 whole entry): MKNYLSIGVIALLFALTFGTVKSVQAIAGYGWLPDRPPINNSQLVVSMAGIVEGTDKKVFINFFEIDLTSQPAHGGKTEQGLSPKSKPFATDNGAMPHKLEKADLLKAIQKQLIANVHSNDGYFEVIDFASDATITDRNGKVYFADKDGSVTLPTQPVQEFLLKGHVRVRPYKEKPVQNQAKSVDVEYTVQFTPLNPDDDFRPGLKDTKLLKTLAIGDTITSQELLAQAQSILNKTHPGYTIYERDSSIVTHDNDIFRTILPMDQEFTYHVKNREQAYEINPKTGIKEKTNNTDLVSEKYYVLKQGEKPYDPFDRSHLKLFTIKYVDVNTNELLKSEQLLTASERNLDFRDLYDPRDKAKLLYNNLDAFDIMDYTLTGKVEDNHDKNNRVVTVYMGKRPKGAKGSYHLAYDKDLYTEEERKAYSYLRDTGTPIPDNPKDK

[16] = tested on: Streptococcus sp. 'group A'; test: Streptococcus pyogenes SK(-)GAS viability under kanamycin – luminescence, BacTiterGlo, confirmation, counter-screen for streptokinase expression inhibitor project, dose response (AID 1900); assay type: functional, organism-based
Streptococcus = test: GAS UMAA2166 growth inhibition – luminescence, BacTiterGlo, counter-screen for streptokinase expression inhibitor project, dose response (AID 1915); assay type: functional, organism-based;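 note: potency for reduction of bacterial viability or growth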
[17] = blockade of melanocortin 4 receptor signaling – cell-based, plate reader, cherry pick, counter-screen for LGR2 antagonist project, dose response (AID 743444); assay type: functional;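 note: transfected HEK 293 cells stimulated with alpha-MSH peptide; potency of inhibitors of the alpha-MSH evoked signal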
[18] = blockers of bursicon-stimulated LGR2 cAMP reporter – cell-based, HEK293, CRE-luciferase reporter, cherry pick, set 2, dose response (AID 743343); assay type: functional;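 note: transfected cells were stimulated with diluted bursicon conditioned medium after compound addition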
[19] = Trypanosoma cruzi growth suppression in host cells – NIH3T3 host cells, beta-gal luminescence, confirmation (AID 2044); assay type: functional, cell-based;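 note: intracellular parasites grown in NIH/3T3 mouse fibroblasts as host cells; luminescent beta-galactosidase reporter signal from transgenic T. cruzi replicating inside host cells; inhibitors lower the luminescence signal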
[20] = NIH3T3 cell viability loss – ATP luminescence, mouse fibroblasts, counter-screen, dose response (AID 2010); assay type: functional, cell-based;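 note: cells exposed to compound for about 90 hours before reading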
[21] = target: T5, DNA repair protein RAD52 homolog (Homo sapiens, UniProt P43351); assay type: functional, biochemical
T5 sequence (P43351 whole entry): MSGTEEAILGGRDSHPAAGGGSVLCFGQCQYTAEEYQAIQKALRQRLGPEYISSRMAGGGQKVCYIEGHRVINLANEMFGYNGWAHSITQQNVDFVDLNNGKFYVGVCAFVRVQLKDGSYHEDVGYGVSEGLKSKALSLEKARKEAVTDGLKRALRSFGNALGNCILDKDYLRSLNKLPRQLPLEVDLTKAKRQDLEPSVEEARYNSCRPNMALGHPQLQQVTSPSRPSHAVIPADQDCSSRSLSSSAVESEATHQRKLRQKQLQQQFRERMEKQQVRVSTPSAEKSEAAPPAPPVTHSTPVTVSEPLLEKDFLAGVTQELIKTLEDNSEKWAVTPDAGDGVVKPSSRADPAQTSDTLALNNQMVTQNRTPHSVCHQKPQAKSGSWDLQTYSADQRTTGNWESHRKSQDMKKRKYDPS

Chain of Photoreceptor-specific nuclear receptor (Q9Y5X4 whole entry, the tested form may be a part): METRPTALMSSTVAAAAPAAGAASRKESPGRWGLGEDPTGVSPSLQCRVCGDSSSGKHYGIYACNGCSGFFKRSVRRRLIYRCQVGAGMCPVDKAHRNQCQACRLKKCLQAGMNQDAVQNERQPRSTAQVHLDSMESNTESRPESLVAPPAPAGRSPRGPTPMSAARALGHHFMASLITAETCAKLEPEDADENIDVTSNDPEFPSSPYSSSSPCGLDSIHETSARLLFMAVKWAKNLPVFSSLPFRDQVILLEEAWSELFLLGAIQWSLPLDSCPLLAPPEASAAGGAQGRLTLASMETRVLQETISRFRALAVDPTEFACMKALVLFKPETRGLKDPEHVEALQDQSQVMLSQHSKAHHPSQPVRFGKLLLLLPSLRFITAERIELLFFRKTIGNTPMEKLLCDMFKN

For `N#C/C(=C\c1ccc(Sc2nc3ccccc3[nH]2)o1)c1ccccc1`, the EC50 [1] was 23.6 µM (active) and the IC50 [2] was 4.69 µM (active).

For `CCOc1ccc(CONS(=O)(=O)c2ccc(NC(C)=O)cc2)cc1Cl`, the IC50 [3] was 11.1 µM (inactive), the IC50 [4] was 83.3 µM (inactive) and the IC50 [5] was 17.7 µM (inactive).

In the case of `CCOC(=O)c1sc2nc(CSc3ccccc3)nc(N3CCCN(C)CC3)c2c1C`, the EC50 [6] is reported as 8.64 µM (active), the IC50 [7] is reported as 149 µM (active) and the EC50 [8] is reported as > 120 µM (not active). The CC50 [9] was 53.8 µM (active) and the EC50 [10] was 16.9 µM (active).

In the case of `CN1CC(c2ccccc2Cl)C2(COc3ccccc3C2=O)C12C(=O)Nc1ccccc12` (stereo not drawn), the AC50 [11] is reported as 4.21 µM (active), the AC50 [12] is reported as 6.24 µM (active) and the AC50 [13] is reported as 65.3 µM (active). The AC50 [14] was 10.6 µM (active) and the AC50 [15] was 3 µM (active).

With `Cc1c(C(=O)Nc2ccc(Oc3ccccc3)cc2)sc2nc3n(c(=O)c12)CCC3` the EC50 (Streptokinase A) was 39 µM (active), the EC50 [16] was 6.66 µM (active) and the EC50 (Streptococcus) was > 150 µM (not active). The IC50 [2] was 2.78 µM (active).

For `Cc1ccc(NC(=O)CN(C)C(=O)c2cc(S(=O)(=O)N(C)C)ccc2N2CCCC2)cc1`, the IC50 [3] was 4.27 µM (active), the IC50 [4] was 83.3 µM (inactive) and the IC50 [5] was 10.4 µM (inactive).

In the case of `Cc1ccc(NC(=O)c2cnn(-c3ccccc3)c2C)cc1C`, the AC50 [17] is reported as 4.12 µM (active) and the AC50 [18] is reported as 7.23 µM (active).

For `COc1ccc(C2c3ccc4ccccc4c3Oc3ncn(CCN(C)C)c(=N)c32)cc1` (stereo not drawn), the EC50 [19] was 1.34 µM (active), the EC50 [20] was 22.1 µM (active) and the AC50 [21] was 19.9 µM (active).

In the case of `Cc1sc2nc(CN3CCCCC3)nc(Nc3ccc4c(c3)OCCO4)c2c1C`, the AC50 [21] is reported as 22.2 µM (active).
